Data on one substance can be found in US11492379B2 (priority 2020, dated 2022).

The assay relates to icSARS-CoV-2-GFP. The assay is classed as cell-based, SARS-CoV-2.

In the case of trypsin, the syncytium formation result is given as “did not trigger syncytium formation” and the “virus titers relative to controls” value was “slightly lower virus titers than controls”.
